From PubChem BioAssay AID248 (DTP/NCI, 2004)
“And” between values parts separate entries of the source, which are not always exact repeats. Identical values can stand only once. Inconclusive results and toxic doses are left out. No stated cut-off is given here; in the data, active means T/C of 150% or more; inactive means T/C below 125%.

System: L1210 leukemia ip in BDF1 mice, survival T/C
Assay: NCI In Vivo Anticancer Drug Screen. Data for tumor model L1210 Leukemia (intraperitoneal) in B6D2F1 (BDF1) mice
Conditions: endpoint: mean survival time, higher = longer survival
Method in brief: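 Ratio derived from survival: compound-dosed mice over vehicle-dosed mice, all bearing a transplantable tumor.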

[1] = dose: 100.0 mg/kg/injection, schedule: Q01DX001 (ip), vehicle: other
[2] = dose: 150.0 mg/kg/injection, schedule: Q01DX001 (ip), vehicle: other
[3] = dose: 100.0 mg/kg/injection, schedule: Q01DX001 (ip), vehicle: Klucel (hydroxypropylcellulose) (HPC)
[4] = dose: 100.0 mg/kg/injection, schedule: Q01DX001 (ip), vehicle: saline
[5] = dose: 100.0 mg/kg/injection, schedule: Q01DX009 (ip), vehicle: Klucel (hydroxypropylcellulose) (HPC)
[6] = dose: 200.0 mg/kg/injection, schedule: Q01DX001 (ip), vehicle: Klucel (hydroxypropylcellulose) (HPC)
[7] = dose: 200.0 mg/kg/injection, schedule: Q01DX001 (ip), vehicle: saline
[8] = dose: 200.0 mg/kg/injection, schedule: Q01DX009 (ip), vehicle: Klucel (hydroxypropylcellulose) (HPC)
[9] = dose: 400.0 mg/kg/injection, schedule: Q01DX001 (ip), vehicle: Klucel (hydroxypropylcellulose) (HPC)
[10] = dose: 400.0 mg/kg/injection, schedule: Q01DX001 (ip), vehicle: saline
[11] = dose: 400.0 mg/kg/injection, schedule: Q01DX009 (ip), vehicle: Klucel (hydroxypropylcellulose) (HPC)
[12] = dose: 100.0 mg/kg/injection, schedule: Q04DX003 (ip), vehicle: saline
[13] = dose: 100.0 mg/kg/injection, schedule: Q01DX009 (ip), vehicle: other
[14] = dose: 12.5 mg/kg/injection, schedule: Q01DX009 (ip), vehicle: Klucel (hydroxypropylcellulose) (HPC)
[15] = dose: 25.0 mg/kg/injection, schedule: Q01DX009 (ip), vehicle: Klucel (hydroxypropylcellulose) (HPC)
[16] = dose: 100.0 mg/kg/injection, schedule: Q04DX003 (ip), vehicle: saline with Tween-80
[17] = dose: 200.0 mg/kg/injection, schedule: Q04DX003 (ip), vehicle: saline with Tween-80
[18] = dose: 400.0 mg/kg/injection, schedule: Q04DX003 (ip), vehicle: saline with Tween-80

Measured: T/C

c1ccc([S+]([CH2][Hg][CH2][S+](c2ccccc2)c2ccccc2)c2ccccc2)cc1
inactive: dose: 5.0 mg/kg/injection, schedule: Q01DX001 (ip), vehicle: saline 92 % of control | dose: 10.0 mg/kg/injection, schedule: Q01DX001 (ip), vehicle: saline 109 % of control | dose: 20.0 mg/kg/injection, schedule: Q01DX001 (ip), vehicle: saline 119 % of control

CC1=C(/C=C/C(C)=C/C=C/C(C)=C/CO)C(C)(C)CCC1
inactive: dose: 50.0 mg/kg/injection, schedule: Q01DX009 (ip), vehicle: steriod suspending solution 90 % of control | [1] 100 % of control | dose: 100.0 mg/kg/injection, schedule: Q01DX009 (ip), vehicle: steriod suspending solution 95 % of control | [2] 98 % of control | dose: 200.0 mg/kg/injection, schedule: Q01DX001 (ip), vehicle: other 95 % of control and 102 % of control | dose: 200.0 mg/kg/injection, schedule: Q01DX001 (sc), vehicle: steriod suspending solution 101 % of control | dose: 400.0 mg/kg/injection, schedule: Q01DX001 (sc), vehicle: steriod suspending solution 98 % of control

CON(C)c1nc(Cl)nc(Cl)n1
inactive: dose: 50.0 mg/kg/injection, schedule: Q01DX001 (ip), vehicle: saline 105 % of control | [3] 103 % of control | [4] 100 % of control | [5] 95 % of control | [6] 94 % of control | [7] 94 % of control | [8] 98 % of control | [9] 98 % of control | [10] 102 % of control | [11] 96 % of control

COc1ccc(C)cc1NN
inactive: dose: 25.0 mg/kg/injection, schedule: Q01DX009 (ip), vehicle: saline 101 % of control | dose: 50.0 mg/kg/injection, schedule: Q01DX009 (ip), vehicle: saline 97 % of control | [12] 96 % of control

Oc1cc(O)c(CN2CCCCC2)cc1CN1CCCCC1
inactive: [4] 87 % of control

CC(C)(C)C1CCC(S(=O)(=O)c2ccccc2)C(Cl)C1 (stereo not given)
inactive: [5] 102 % of control | [12] 102 % of control | [8] 104 % of control | dose: 200.0 mg/kg/injection, schedule: Q04DX003 (ip), vehicle: saline 96 % of control | [11] 104 % of control | dose: 400.0 mg/kg/injection, schedule: Q04DX003 (ip), vehicle: saline 93 % of control

[N-]=[N+]=Nc1c(N=[N+]=[N-])c(NS(=O)(=O)c2ccccc2)c2ccccc2c1NS(=O)(=O)c1ccccc1
inactive: dose: 100.0 mg/kg/injection, schedule: Q04DX002 (ip), vehicle: saline with Tween-80 87 % of control | dose: 200.0 mg/kg/injection, schedule: Q04DX002 (ip), vehicle: saline with Tween-80 97 % of control | dose: 400.0 mg/kg/injection, schedule: Q04DX002 (ip), vehicle: saline with Tween-80 97 % of control

Cc1ccc(S(=O)(=O)C2=C(c3ccccc3)c3ccccc3CC2)cc1
inactive: [4] 101 % of control | dose: 100.0 mg/kg/injection, schedule: Q01DX009 (ip), vehicle: saline 93 % of control | dose: 100.0 mg/kg/injection, schedule: Q04DX003 (ip), vehicle: acetone 100 % of control | [7] 93 % of control | dose: 200.0 mg/kg/injection, schedule: Q01DX009 (ip), vehicle: saline 91 % of control | dose: 200.0 mg/kg/injection, schedule: Q04DX003 (ip), vehicle: acetone 102 % of control | [10] 95 % of control | dose: 400.0 mg/kg/injection, schedule: Q01DX009 (ip), vehicle: saline 93 % of control | dose: 400.0 mg/kg/injection, schedule: Q04DX003 (ip), vehicle: acetone 105 % of control

COc1ccc(CC2=[N+](C)CCc3cc(OC)c(OC)cc32)cc1OC
inactive: dose: 25.0 mg/kg/injection, schedule: Q01DX009 (ip), vehicle: other 101 % of control | dose: 50.0 mg/kg/injection, schedule: Q01DX009 (ip), vehicle: other 104 % of control | [1] 106 % of control | [13] 106 % of control | dose: 400.0 mg/kg/injection, schedule: Q01DX001 (ip), vehicle: other 106 % of control

CCn1ncc2ccccc2c1=O
inactive: [4] 96 % of control | [7] 97 % of control

COn1c(=O)c2ccccc2n(C)c1=O
inactive: dose: 62.5 mg/kg/injection, schedule: Q01DX009 (ip), vehicle: other 96 % of control | dose: 125.0 mg/kg/injection, schedule: Q01DX009 (ip), vehicle: other 94 % of control | dose: 250.0 mg/kg/injection, schedule: Q01DX009 (ip), vehicle: other 98 % of control

CCN(CC)S(=O)(=O)c1ccc(Nc2nc(Cl)nc(Cl)n2)cc1
inactive: [14] 113 % of control | dose: 12.5 mg/kg/injection, schedule: Q04DX003 (ip), vehicle: Klucel (hydroxypropylcellulose) (HPC) 102 % of control | [15] 97 % of control | dose: 25.0 mg/kg/injection, schedule: Q04DX003 (ip), vehicle: Klucel (hydroxypropylcellulose) (HPC) 100 % of control | dose: 50.0 mg/kg/injection, schedule: Q01DX009 (ip), vehicle: Klucel (hydroxypropylcellulose) (HPC) 113 % of control | dose: 50.0 mg/kg/injection, schedule: Q04DX003 (ip), vehicle: Klucel (hydroxypropylcellulose) (HPC) 95 % of control

CCc1ccccc1NC(=O)c1ccccc1Cl
inactive: [13] 97 % of control | [16] 102 % of control | dose: 200.0 mg/kg/injection, schedule: Q01DX009 (ip), vehicle: other 95 % of control | [17] 101 % of control | dose: 400.0 mg/kg/injection, schedule: Q01DX009 (ip), vehicle: other 89 % of control | [18] 93 % of control

CCCCCCCCCCCCCCNCCC(=O)O
inactive: dose: 37.5 mg/kg/injection, schedule: Q04DX003 (ip), vehicle: saline 102 % of control | dose: 75.0 mg/kg/injection, schedule: Q04DX003 (ip), vehicle: saline 101 % of control | dose: 150.0 mg/kg/injection, schedule: Q04DX003 (ip), vehicle: saline 102 % of control

C/C=C/CC1(C(C)C)C(=O)NC(=O)NC1=O
inactive: dose: 75.0 mg/kg/injection, schedule: Q01DX001 (ip), vehicle: other 103 % of control | dose: 75.0 mg/kg/injection, schedule: Q01DX001 (ip), vehicle: saline 101 % of control | [2] 105 % of control | dose: 150.0 mg/kg/injection, schedule: Q01DX001 (ip), vehicle: saline 104 % of control

Cc1nnc(C)n1N
inactive: [4] 106 % of control | [7] 106 % of control | [10] 95 % of control

Cc1nc2ccccc2nc1N1CCCC1
inactive: dose: 111.0 mg/kg/injection, schedule: Q01DX Z (ip), vehicle: methylcellulose (MC) 101 % of control | dose: 166.0 mg/kg/injection, schedule: Q01DX Z (ip), vehicle: methylcellulose (MC) 92 % of control | dose: 250.0 mg/kg/injection, schedule: Q01DX Z (ip), vehicle: methylcellulose (MC) 114 % of control

[N-]=Cc1c(O)cccc1Cl.[N-]=Cc1cc(Cl)ccc1O.[Ni+2]
inactive: dose: 6.25 mg/kg/injection, schedule: Q01DX009 (ip), vehicle: Klucel (hydroxypropylcellulose) (HPC) 96 % of control | [14] 93 % of control | [15] 95 % of control | dose: 100.0 mg/kg/injection, schedule: Q04DX003 (ip), vehicle: Klucel (hydroxypropylcellulose) (HPC) 97 % of control | dose: 200.0 mg/kg/injection, schedule: Q04DX003 (ip), vehicle: Klucel (hydroxypropylcellulose) (HPC) 87 % of control | dose: 400.0 mg/kg/injection, schedule: Q04DX003 (ip), vehicle: Klucel (hydroxypropylcellulose) (HPC) 86 % of control

COc1cc(CC(=O)O)c(OC)cc1CC(=O)O
inactive: dose: 100.0 mg/kg/injection, schedule: Q01DX009 (ip), vehicle: saline with Tween-80 101 % of control | [16] 93 % of control | dose: 200.0 mg/kg/injection, schedule: Q01DX009 (ip), vehicle: saline with Tween-80 99 % of control | [17] 96 % of control | dose: 400.0 mg/kg/injection, schedule: Q01DX009 (ip), vehicle: saline with Tween-80 94 % of control | [18] 94 % of control

COC(=O)c1ccccc1Cc1cccc2c(Cl)cccc12
inactive: [3] 97 % of control | [6] 98 % of control | [9] 106 % of control

CC(C)(C)N(CCC(=O)c1ccccc1)C(=O)c1ccccc1
inactive: [5] 98 % of control | [8] 102 % of control | [11] 88 % of control
